Our source for the IC50 values is US11083729B2, “Methods of treating cancer with small molecule NF-κB inhibitors” (ImmuneTarget, Inc., priority 2017, dated 2021).

The subject of experiment [1] is HepG2. The experiment can be described thus: CellTiter-Glo IG50, Example 9 HCC panel, HepG2. Conditions: Homo sapiens, HepG2, 72 hours. The format is cell-based. Here is the method: (§1) The cells were harvested during the logarithmic growth period and counted. Cell concentrations were adjusted to the appropriate number in appropriate medium and 90 μl cell suspensions were added to 96-well plates. When cells were added, the plates were shaken gently to distribute the cells evenly. Cells were incubated at 37° C. and 5% CO2.
(§2) 3× serial dilutions of test compound stock solutions with respective solvents were prepared. The stock solutions were diluted with culture medium to generate 10× working solutions of the test compounds. 10 μl of the 10× test compound solutions were added to each well in triplicate for each concentration. Plates were incubated for 72 hours in a humidified incubator at 37° C. and 5% CO2.
(§3) CellTiter-Glo (CTG) solution was thawed and equilibrated to room temperature. 50 μl of CTG were added to each well and the contents were mixed for 2 minutes on a plate shaker. Cells were incubated for 10 minutes before luminescence signal was recorded using Envision.
(§4) Cell viability was plotted with GraphPad Prism version 5 and the IG50 was calculated for each cell line. The graphical curves were fitted using a nonlinear regression model with a sigmoidal dose response. IG50 is the concentration of test drug where 100×T/C=50 (the optical density of the test well after a 3-day period of exposure to test drug is T; the control optical density is C).
(§5) The cells were cultured in an atmosphere of 37° C., 5% CO2 and 95% humidity. All culture media and FBS were purchased from GIBCO, Hyclone or Sigma, USA. The media used for cell culture is described in the table below.
(§6) Following the cell culture protocol and data analysis methods described in Example 8, the following IG50 results (in μM) were observed: […]

Experiment [2] relates to Hep3B. As to the kind of experiment: CellTiter-Glo IG50, Example 9 HCC panel, Hep3B. Particulars: Homo sapiens, 72 hours. The format is cell-based. Here is the method: as §1, §2, §3, §4, §5, §6
In experiment [3] the test system is PLC/PRF/5. As to the kind of experiment: CellTiter-Glo IG50, Example 9 HCC panel, PLC/PRF/5. Particulars: Homo sapiens, PLC/PRF/5, 72 hours. The format is cell-based. The protocol: as §1, §2, §3, §4, §5, §6
Experiment [4] concerns HUH7. As to the kind of experiment: CellTiter-Glo IG50, Example 9 HCC panel, HUH7. The format is cell-based. Particulars: Homo sapiens, Huh-7, HUH7, 72 hours. Here is the method:
as §1, §2, §3, §4, §5, §6

Experiment [5] has as its system JHH5. The experiment can be described thus: CellTiter-Glo IG50, Example 9 HCC panel, JHH5. Particulars: JHH5, 72 hours. The format is cell-based. The protocol: as §1, §2, §3, §4, §5, §6
The subject of experiment [6] is PBMC. As to the kind of experiment: CellTiter-Glo IG50, Example 9 HCC panel, PBMC. The format is cell-based. Particulars: 72 hours. The protocol: as §1, §2, §3, §4, §5, §6
Experiment [7] deals with SNU878. As to the kind of experiment: CellTiter-Glo IG50, Example 9 HCC panel, SNU878. The format is cell-based. Conditions: SNU878, 72 hours. The protocol:
as §1, §2, §3, §4, §5, §6

For experiment [8], the system named is Capan-1. As to the kind of experiment: CellTiter-Glo IG50, Example 8, Capan-1. Particulars: Homo sapiens, Capan-1, 72 hours. The format is cell-based. Here is the method: (§7) Various pancreatic, liver, colon, breast, and stomach cancer cell lines were exposed to the NF-κB inhibitors of the present invention, including, for example, IT-839, IT-843, IT-848, and IT-878, and assessed for IG50 in the CellTiter Glo 2.0 assay.
as §5, §1, §2, §3, §4

The subject of experiment [9] is PANC-1. The experiment can be described thus: CellTiter-Glo IG50, Example 8, PANC-1. The format is cell-based. Particulars: Homo sapiens, PANC-1, 72 hours. The protocol:
as §7, §5, §1, §2, §3, §4

For experiment [10], the system named is MIAPACA-2. As to the kind of experiment: CellTiter-Glo IG50, Example 8, MIAPACA-2. The format is cell-based. Conditions: Homo sapiens, MIA PaCa-2, MIAPACA-2, 72 hours. Here is the method:
as §7, §5, §1, §2, §3, §4

The test system of experiment [11] is MCF-7. The experiment can be described thus: CellTiter-Glo IG50, Example 8, MCF-7. The format is cell-based. Conditions: Homo sapiens, MCF7, MCF-7, 72 hours. The protocol: as §7, §5, §1, §2, §3, §4
The test system of experiment [12] is MDA-MB-231. As to the kind of experiment: CellTiter-Glo IG50, Example 8, MDA-MB-231. The format is cell-based. Conditions: Homo sapiens, MDA-MB-231, 72 hours. The protocol: as §7, §5, §1, §2, §3, §4
The subject of experiment [13] is T47D. As to the kind of experiment: CellTiter-Glo IG50, Example 8, T47D. Particulars: Homo sapiens, 72 hours. The format is cell-based. The protocol:
as §7, §5, §1, §2, §3, §4

In experiment [14] the target is T1, c-Rel protein (Homo sapiens, UniProt Q04864).
T1 sequence (Q04864 1-619): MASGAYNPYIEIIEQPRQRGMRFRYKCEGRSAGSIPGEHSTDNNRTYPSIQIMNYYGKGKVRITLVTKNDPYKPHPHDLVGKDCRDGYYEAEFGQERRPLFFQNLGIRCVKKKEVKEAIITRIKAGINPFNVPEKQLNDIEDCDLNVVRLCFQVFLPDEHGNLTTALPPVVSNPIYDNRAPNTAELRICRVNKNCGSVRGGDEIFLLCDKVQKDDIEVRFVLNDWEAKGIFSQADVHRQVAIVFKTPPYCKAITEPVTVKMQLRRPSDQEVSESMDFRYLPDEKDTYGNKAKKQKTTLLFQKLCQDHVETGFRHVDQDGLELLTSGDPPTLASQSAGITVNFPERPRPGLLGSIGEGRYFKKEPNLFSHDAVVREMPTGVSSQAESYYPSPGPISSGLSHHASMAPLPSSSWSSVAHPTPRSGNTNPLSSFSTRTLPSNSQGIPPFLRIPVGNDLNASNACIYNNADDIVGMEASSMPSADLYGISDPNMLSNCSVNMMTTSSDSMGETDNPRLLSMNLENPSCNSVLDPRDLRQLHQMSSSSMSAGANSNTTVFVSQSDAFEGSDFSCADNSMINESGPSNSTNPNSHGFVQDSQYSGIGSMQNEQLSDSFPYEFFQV
As to the kind of experiment: Electrophoretic Mobility Shift Assay (EMSA), c-Rel binding to CD28RE oligonucleotide. Particulars: 10 nM c-Rel protein. The protocol: DNA binding reaction (20 μL) was carried out in 1×DNA Binding Buffer (10 mM Tris, 40 mM NaCl, 1 mM EDTA, 4% glycerol) with 10 nM c-Rel protein and 0.5 ng phosphor-labeled CD28RE oligonucleotide for 10 minutes at room temperature in 96-well plates. Test compounds, in serial dilutions, were added into each well, and further incubated for 15 minutes before loading onto native 5% polyacrylamide gel. Electrophoresis proceeded for 2.5 hours at 160V. Radioactive signals were quantified using Phospho-Imager. IC50 of compounds of example 1 to 75 were determined by quantifying the intensity of Rel/NF-κB inhibition in EMSA using phospho-imager. An example of EMSA data of the present invention is shown for compound 6 in FIG. 2.

For the compound `CCCCCCOc1cc2oc3nc(=O)[nH]c(=O)c-3cc2cc1F` [IT-835], the IC50 was more than 16 µM in [1]; 3.26 µM in experiment [2]; more than 16 µM in experiment [3]; 5.4 µM in experiment [4]; more than 16 µM in experiment [5]; 0.985 µM in [6]. Moreover, the IC50 in [7] is more than 16 µM.

On to `CCCCCCCOc1ccc2cc3c(=O)[nH]c(=O)nc-3oc2c1Cl` [IT-846], for which the IC50 in [1] was 4.27 µM; in experiment [2], 2.34 µM; in experiment [3], 8.51 µM; in experiment [4] it was 3.39 µM; in experiment [5] it was more than 16 µM; in experiment [6], 0.456 µM. The compound also came in with a concentration for half-maximal inhibition (IC50) in experiment [7] of more than 16 µM.

Regarding `COCCOCCOc1ccc2cc3c(=O)[nH]c(=O)nc-3oc2c1Cl` [IT-876], the IC50 in [1] was 4.9 µM; in [2], more than 16 µM; in experiment [3] it was more than 16 µM; in experiment [4] it was 17.7 µM; in experiment [5], 8.5 µM; in experiment [6], 8.67 µM. Also, the IC50 in experiment [7] is more than 16 µM.

Take `Nc1ccn([C@@H]2O[C@H](CO)[C@@H](O)C2(F)F)c(=O)n1` [Gemcitabine, gemcitabine, reference compound]: the IC50 was 0.051 µM in experiment [8]; more than 16 µM in experiment [9]; 0.012 µM in experiment [10]; more than 16 µM in experiment [11]; more than 16 µM in [12]; more than 16 µM in [13].

As for `COc1ccc2oc3nc(=S)[nH]c(=O)c-3cc2c1` [compound 15, 7-methoxy-2-thioxo-2H-chromeno[2,3-d]pyrimidin-4(3H)-one], in [14], the IC50 is less than 0.5 µM.

Consider `CCCCCCOc1ccc2cc3c(=O)[nH]c(=O)nc-3oc2c1Cl` [compound 44], for which the IC50 in experiment [14] was less than 0.5 µM.

On to `CC(=O)OCCCOc1ccc2cc3c(=O)[nH]c(=O)nc-3oc2c1Cl` [compound 59], for which, in experiment [14], the IC50 was less than 5 µM.

For `O=c1nc2oc3ccccc3cc-2c(=O)[nH]1` [compound 9, 2H-chromeno[2,3-d]pyrimidine-2,4(3H)-dione], in experiment [14], the IC50 was less than 5 µM.

In the case of `COCCCCOc1ccc2cc3c(=O)[nH]c(=O)nc-3oc2c1` [compound 67], the IC50 in experiment [14] is less than 1 µM.

Take `CCOc1cccc2cc3c(=O)[nH]c(=O)nc-3oc12` [compound 2, 9-ethoxy-2H-chromeno[2,3-d]pyrimidine-2,4(3H)-dione]: the IC50 in experiment [14] was less than 2 µM.

As to `CCCOc1ccc2cc3c(=O)[nH]c(=O)nc-3oc2c1` [compound 19, 8-propoxy-2H-chromeno[2,3-d]pyrimidine-2,4(3H)-dione], in experiment [14], the IC50 was less than 1 µM.

Take `CC(C)(C)COc1cc2oc3nc(=O)[nH]c(=O)c-3cc2cc1F` [compound 36]: the IC50 in [14] was less than 0.5 µM.

For the compound `CCOc1ccc2cc3c(=O)[nH]c(=O)nc-3sc2c1` [compound 49, 8-ethoxy-2H-thiochromeno[2,3-d]pyrimidine-2,4(3H)-dione], the IC50 in [14] is less than 1 µM.

As for `O=C(O)COc1ccc2cc3c(=O)[nH]c(=O)nc-3oc2c1Cl` [compound 56], in experiment [14], the IC50 was less than 5 µM.

As to `COc1cc(Cl)cc2cc3c(=O)[nH]c(=O)nc-3oc12` [compound 3, 7-chloro-9-methoxy-2H-chromeno[2,3-d]pyrimidine-2,4(3H)-dione], the half-inhibitory concentration (IC50) in [14] was less than 2 µM.
